From ChEMBL document CHEMBL1201862, “PubChem BioAssay data set” (2004)
Where a name gives a salt, the structure may show the parent alone.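 In this assay, cells in 96-well plates receive the compound at five concentrations for 48 hours. Endpoints are linearly interpolated between the surrounding concentrations. Abbreviation: GI50, concentration required for 50% inhibition of growth.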 Activity calls are given as the source filed them. No stated cut-off is given here; in the data, active = GI50 up to about 1.1 µM and inactive = higher.

Columns and labels:
Test in all cases: NCI anticancer screen, dose series, 48 h
Hs-578T = test system: Hs-578T
MDA-N = test system: MDA-N
T47D = test system: T47D
LXFL 529 = test system: LXFL 529
M19-MEL = test system: M19-MEL
786-0 = test system: 786-0
BT-549 = test system: BT-549
HOP-18 = test system: HOP-18
RXF 631 = test system: RXF 631

SMILES | GI50 (Hs-578T) | GI50 (MDA-N) | GI50 (T47D) | GI50 (LXFL 529) | GI50 (M19-MEL) | GI50 (BT-549) | GI50 (HOP-18) | other results
CC(C)(CCCCC(C)(C)C1NC(=O)N1)C1NC(=O)N1 | > 10 µM (inactive) | > 10 µM (inactive) | > 10 µM (inactive) | – | – | – | – | –
CC(C)OP(=O)(OC(C)C)c1ncn(-c2ccc([N+](=O)[O-])cc2)n1 | – | – | – | > 100 µM (inactive) | > 100 µM (inactive) | – | – | –
COc1ccc(/C=C2/C(=O)N(C(=O)c3ccccc3O)N=C2C)cc1 | – | 0.125 µM (active) | 4.32 µM (inactive) | 0.205 µM (active) | 0.542 µM (active) | 0.105 µM (active) | – | GI50 (786-0): 0.598 µM (active)
CC(=O)Oc1ccc(C2COc3cc(OC(C)=O)c(OC(C)=O)cc3C2)cc1 (configuration not stated) | – | – | – | – | 12.9 µM (inactive) | – | 12.8 µM (inactive) | –
COc1cc2c(cc1OC)C1Cc3cc(OC)c(OC)cc3C(C2)O1 | – | > 100 µM (inactive) | 58.5 µM (inactive) | – | – | > 100 µM (inactive) | – | –
CCCCn1cc[n+](-c2nc3ccccc3n2C)c1 | – | – | – | > 100 µM (inactive) | – | – | > 100 µM (inactive) | GI50 (RXF 631): > 100 µM (inactive)
N#CCCN(c1ccc(/C=N/c2cccc([N+](=O)[O-])c2)cc1)S(=O)(=O)c1ccccc1 | – | – | – | > 100 µM (inactive) | – | – | – | GI50 (786-0): > 100 µM (inactive); GI50 (RXF 631): > 100 µM (inactive)
CSCSCC(CO)NC(=O)/C(C)=C\c1c(C)[nH]c(=O)[nH]c1=O (configuration not stated) | – | – | – | – | > 250 µM (inactive) | – | > 250 µM (inactive) | –
CCCc1c(-c2ccccc2)[nH]c2ccccc2c1=O | > 100 µM (inactive) | 41.4 µM (inactive) | 25.9 µM (inactive) | – | – | 40.5 µM (inactive) | – | –
CNCCC=C1c2ccccc2CCc2ccccc21 [NORTRIPTYLINE HYDROCHLORIDE] | 19.6 µM (inactive) | 15.6 µM (inactive) | 9.23 µM (inactive) | – | – | 15.5 µM (inactive) | – | GI50 (786-0): 14.6 µM (inactive)
CN1CCc2[nH]c3ccccc3c2C1 | – | – | – | – | > 100 µM (inactive) | – | > 100 µM (inactive) | –
Cc1cc(C)c(NC(=O)/C=C/c2ccccc2)c(C)c1 | 57.7 µM (inactive) | – | – | – | – | > 100 µM (inactive) | – | –
